Measurements published in ChEMBL document CHEMBL1201862, “PubChem BioAssay data set” (2004).
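Assay format: 96-well plates, 48-hour exposure. At the GI50, growth is halved.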 Calls of active or inactive are those of the source. No stated cut-off is given here; in the data, active = GI50 up to about 1.1 µM and inactive = higher.

Tests used:
Assay in all cases: growth of human tumour cells (NCI), 48 h
MOLT-4 = system: MOLT-4
CAKI-1 = system: CAKI-1
SK-MEL-28 = system: SK-MEL-28
LOX IMVI = system: LOX IMVI
PC-3 = system: PC-3
EKVX = system: EKVX
NCI-H226 = system: NCI-H226
A498 = system: A498
COLO 205 = system: COLO 205
KM12 = system: KM12
786-0 = system: 786-0
HT-29 = system: HT-29
ACHN = system: ACHN
SNB-75 = system: SNB-75
SNB-19 = system: SNB-19
DU-145 = system: DU-145
RPMI-8226 = system: RPMI-8226
SW-620 = system: SW-620
TK-10 = system: TK-10
SF-295 = system: SF-295
NCI-H23 = system: NCI-H23
NCI-H460 = system: NCI-H460
HL-60 = system: HL-60
OVCAR-3 = system: OVCAR-3
A549 = system: A549
SR = system: SR
SN12C = system: SN12C
K562 = system: K562
OVCAR-5 = system: OVCAR-5
NCI/ADR-RES = system: NCI/ADR-RES
UACC-257 = system: UACC-257
M14 = system: M14
HOP-92 = system: HOP-92
T47D = system: T47D
MCF7 = system: MCF7
HCT-116 = system: HCT-116
HCT-15 = system: HCT-15
SK-MEL-5 = system: SK-MEL-5
HOP-62 = system: HOP-62
MDA-MB-435 = system: MDA-MB-435
SK-MEL-2 = system: SK-MEL-2
HCC 2998 = system: HCC 2998
SK-OV-3 = system: SK-OV-3
BT-549 = system: BT-549
OVCAR-8 = system: OVCAR-8
OVCAR-4 = system: OVCAR-4
U-251 = system: U-251
UO-31 = system: UO-31
UACC-62 = system: UACC-62
CCRF-CEM = system: CCRF-CEM
MDA-N = system: MDA-N
RXF 393 = system: RXF 393
IGROV-1 = system: IGROV-1
MDA-MB-231 = system: MDA-MB-231
Malme-3M = system: Malme-3M
SF-539 = system: SF-539
SF-268 = system: SF-268
NCI-H522 = system: NCI-H522

Measured: GI50

CCOC(=O)CC1C(C(=O)OCC)=Cn2c([nH]c3cccc4cccc2c43)=C1C(=O)OCC (stereo unspecified)
inactive: MOLT-4 > 100 µM | CAKI-1 > 100 µM | SK-MEL-28 > 100 µM | LOX IMVI > 100 µM | PC-3 91 µM | EKVX > 100 µM | NCI-H226 > 100 µM | A498 > 100 µM | COLO 205 > 100 µM | KM12 > 100 µM | 786-0 > 100 µM | HT-29 > 100 µM | ACHN > 100 µM | SNB-75 > 100 µM | SNB-19 > 100 µM | DU-145 > 100 µM | RPMI-8226 > 100 µM | SW-620 > 100 µM | TK-10 > 100 µM | SF-295 > 100 µM | NCI-H23 > 100 µM | NCI-H460 > 100 µM | HL-60 25.3 µM | OVCAR-3 > 100 µM | A549 > 100 µM | SR > 100 µM | SN12C > 100 µM | K562 > 100 µM | OVCAR-5 > 100 µM | NCI/ADR-RES > 100 µM | UACC-257 > 100 µM | M14 > 100 µM | HOP-92 > 100 µM | T47D 43.8 µM | MCF7 > 100 µM | HCT-116 > 100 µM | SK-MEL-5 33.7 µM | HOP-62 > 100 µM | MDA-MB-435 54.3 µM | SK-MEL-2 > 100 µM | HCC 2998 > 100 µM | SK-OV-3 > 100 µM | BT-549 > 100 µM | OVCAR-8 > 100 µM | OVCAR-4 > 100 µM | U-251 > 100 µM | UO-31 > 100 µM | UACC-62 > 100 µM | CCRF-CEM > 100 µM | MDA-N > 100 µM | RXF 393 > 100 µM | IGROV-1 > 100 µM
> 100 µM: HCT-15

Cc1cc2c(s1)C(N)CC2=O (stereo unspecified)
> 100 µM: HCT-15
inactive: MOLT-4 > 100 µM | CAKI-1 > 100 µM | SK-MEL-28 > 100 µM | MDA-MB-231 > 100 µM | PC-3 > 100 µM | EKVX > 100 µM | A498 > 100 µM | COLO 205 > 100 µM | KM12 > 100 µM | 786-0 > 100 µM | HT-29 > 100 µM | ACHN > 100 µM | SNB-75 > 100 µM | SNB-19 > 100 µM | DU-145 > 100 µM | RPMI-8226 > 100 µM | Malme-3M > 100 µM | SW-620 > 100 µM | SF-539 > 100 µM | TK-10 > 100 µM | NCI-H460 > 100 µM | HL-60 > 100 µM | OVCAR-3 > 100 µM | A549 > 100 µM | SR > 100 µM | SN12C > 100 µM | K562 > 100 µM | OVCAR-5 > 100 µM | NCI/ADR-RES > 100 µM | UACC-257 > 100 µM | M14 > 100 µM | T47D > 100 µM | MCF7 > 100 µM | HCT-116 > 100 µM | SK-MEL-5 > 100 µM | HOP-62 > 100 µM | MDA-MB-435 > 100 µM | SK-MEL-2 > 100 µM | HCC 2998 > 100 µM | SK-OV-3 > 100 µM | BT-549 > 100 µM | OVCAR-8 > 100 µM | U-251 > 100 µM | UO-31 > 100 µM | SF-268 > 100 µM | UACC-62 > 100 µM | CCRF-CEM > 100 µM | MDA-N > 100 µM | RXF 393 > 100 µM | IGROV-1 > 100 µM

COc1c2cc(C(C)(C)C)cc1Cc1cccc(c1O)Cc1cc(C(C)(C)C)cc(c1OC)Cc1cccc(c1O)Cc1cc(C(C)(C)C)cc(c1OC)Cc1cccc(c1O)C2
inactive: MOLT-4 > 100 µM | CAKI-1 > 100 µM | SK-MEL-28 > 100 µM | MDA-MB-231 > 100 µM | PC-3 > 100 µM | EKVX > 100 µM | A498 > 100 µM | COLO 205 > 100 µM | KM12 > 100 µM | 786-0 > 100 µM | HT-29 > 100 µM | ACHN > 100 µM | SNB-75 > 100 µM | SNB-19 > 100 µM | DU-145 > 100 µM | RPMI-8226 > 100 µM | Malme-3M > 100 µM | SW-620 > 100 µM | SF-539 > 100 µM | SF-295 > 100 µM | NCI-H23 > 10 µM | NCI-H460 > 100 µM | HL-60 > 100 µM | OVCAR-3 > 100 µM | A549 > 100 µM | SR > 100 µM | SN12C > 100 µM | K562 > 100 µM | OVCAR-5 > 100 µM | NCI/ADR-RES > 100 µM | UACC-257 96.6 µM | M14 55.6 µM | HOP-92 > 100 µM | T47D > 100 µM | MCF7 > 100 µM | HCT-116 > 100 µM | SK-MEL-5 > 100 µM | HOP-62 > 100 µM | NCI-H522 > 100 µM | MDA-MB-435 > 100 µM | SK-MEL-2 > 100 µM | HCC 2998 > 100 µM | OVCAR-8 > 100 µM | U-251 > 100 µM | UO-31 > 100 µM | SF-268 > 100 µM | UACC-62 > 100 µM | CCRF-CEM > 10 µM | MDA-N > 100 µM | RXF 393 > 100 µM
> 100 µM: HCT-15

O=C(c1ccc(Cl)cc1Cl)N1CCN(C(=O)c2ccc(Cl)cc2Cl)C1=S
inactive: RPMI-8226 12.9 µM
